Assays:
[1] = system: MV4-11 (FLT3 ITD+/+ mutant type); assay: In vitro growth inhibition (GI50), MV4-11; format: cell-based, human; details: Homo sapiens, MV4-11; Cell lines of leukemia; read-out: GI 50 MV4-11 FLT3 (ITD +/+)
[2] = system: MOLM-13 (FLT3 ITD+/− mutant type); assay: In vitro growth inhibition (GI50), MOLM-13; format: cell-based, human; details: Homo sapiens, MOLM-13; Cell lines of leukemia; read-out: GI 50 MOLM-13 FLT3 (ITD+/−)
RS4; 11 (FLT3 wild type) = assay: In vitro growth inhibition (GI50), RS4; 11; format: cell-based, human; details: Homo sapiens, RS4-11; Cell lines of leukemia; read-out: GI 50 RS4: 11 FLT3 (WT)
[3] = system: K562 (FLT3 negative expression, positive expression of BCR-ABL fusion protein); assay: In vitro growth inhibition (GI50), K562; format: cell-based; details: Homo sapiens, Cell lines of leukemia, read-out: GI 50 K562 BCR-ABL
[4] = system: RAMOS (positive expression of Brutons tyrosine protein kinase); assay: In vitro growth inhibition (GI50), RAMOS; format: cell-based; details: Homo sapiens, Cell lines of leukemia, read-out: GI 50 Ramos BTK
U937 (FLT3 wild-type) = assay: In vitro growth inhibition (GI50), U937; format: cell-based; details: Homo sapiens, U-937; Cell lines of leukemia; read-out: GI 50 U937 FLT 3(WT)
[5] = system: Kasumi-1 (c-Kit N822K mutant type); assay: In vitro growth inhibition (GI50), Kasumi-1; format: cell-based; details: Homo sapiens, Cell lines of leukemia, read-out: GI 50 Kasumi-1 Kit (N822K)
Summary of the method: (§1)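 After 3–5 days of treatment (top concentration 5,000 nM, serially diluted 2- or 10-fold to 0.01 nM, solvent ≤1%), viability was read by CCK8 at OD450. Growth rate was normalised to the time-zero and solvent-control wells, and GI50 was derived from the curve. Cultures in RPMI1640 + 10% FBS.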

[6] = system: KG-1 (expressing FGFR1OP2-FGFR1 fusion protein); assay: In vitro growth inhibition (GI50), KG-1; format: cell-based; details: Homo sapiens; Cell lines of leukemia; read-out: GI 50 KG-1 FGFR1OP 2-FGFR1
HL-60 (FLT3 wild type) = assay: In vitro growth inhibition (GI50), HL-60; format: cell-based; details: Homo sapiens, Cell lines of leukemia, read-out: GI 50 HL60 FLT3 (WT)
Summary of the method: as §1

[7] = system: OCI-AML3 (NPMc+ mutant type); assay: In vitro growth inhibition (GI50), OCI-AML3; format: cell-based; details: Homo sapiens, OCI-AML-3; Cell lines of leukemia; read-out: GI 50 OCI- AML3 NPMc+

| SMILES | GI50 [1] | GI50 [2] | GI50 (RS4; 11 (FLT3 wild type)) | GI50 [3] | GI50 [4] | GI50 (U937 (FLT3 wild-type)) | GI50 (HL-60 (FLT3 wild type)) | GI50 [7] | GI50 [5] | GI50 [6] |
| --- | --- | --- | --- | --- | --- | --- | --- | --- | --- | --- |
| O=C(Nc1ccc(-n2cnc3ccccc32)cc1)Nc1nccs1 [Compound 60, 1-(4-benzimidazol-1-yl-phenyl)-3-thiazol-2-yl-urea] | > 1000 nM | > 1000 nM | > 1000 nM | > 1000 nM | > 1000 nM | > 1000 nM | > 1000 nM | > 1000 nM | > 1000 nM | 100 to 1000 nM |
| CC(C)(C)c1cc(NC(=O)Nc2ccc(-n3ccc4ccccc43)cc2)no1 [Compound 44, 1-(5-tert-butyl-isoxazol-3-yl)-3-(4-indol-1-yl-phenyl)-urea] | > 1000 nM | > 1000 nM | > 1000 nM | > 1000 nM | > 1000 nM | > 1000 nM | > 1000 nM | > 1000 nM | > 1000 nM | > 1000 nM |
| Cc1cc(NC(=O)Nc2ccc(-n3cnc4ccccc43)cc2)no1 [Compound 2, 1-(4-benzimidazol-1-yl-phenyl)-3-(5-methyl-isoxazol-3-yl)-urea] | > 1000 nM | > 1000 nM | > 1000 nM | > 1000 nM | > 1000 nM | > 1000 nM | > 1000 nM | > 1000 nM | > 1000 nM | > 1000 nM |
| Cc1nc2ccccc2n1-c1ccc(NC(=O)Nc2cc(C(C)(C)C)on2)cc1 [Compound 35, 1-(5-tert-butyl-isoxazol-3-yl)-3-[4-(2-methyl-benzimidazol-1-yl)-phenyl]-urea] | 100 to 1000 nM | 100 to 1000 nM | 100 to 1000 nM | 100 to 1000 nM | > 1000 nM | > 1000 nM | > 1000 nM | > 1000 nM | > 1000 nM | > 1000 nM |
| CC(C)(C)c1cc(NC(=O)Nc2ccc(-n3c(Cl)nc4ccccc43)cc2)no1 [Compound 36, 1-(5-tert-butyl-isoxazol-3-yl)-3-[4-(2-chlorobenzimidazol-1-yl)-phenyl]-urea] | 100 to 1000 nM | 100 to 1000 nM | > 1000 nM | > 1000 nM | > 1000 nM | > 1000 nM | > 1000 nM | > 1000 nM | > 1000 nM | > 1000 nM |
| Nc1cc(C2CC2)nn1C(=O)Nc1ccc(-n2cnc3ccccc32)cc1 [Compound 114, 5-amino-3-cyclopropylpyrazol-1-formic acid (4-benzimidazol-1-yl-phenyl)-amide] | 100 to 1000 nM | 100 to 1000 nM | > 1000 nM | > 1000 nM | > 1000 nM | > 1000 nM | > 1000 nM | > 1000 nM | > 1000 nM | > 1000 nM |
| Nc1cc(C(F)(F)F)nn1C(=O)Nc1ccc(-n2cnc3ccccc32)cc1 [Compound 115, 5-amino-3-trifluoromethylpyrazol-1-carboxylic acid (4-benzimidazol-1-yl-phenyl)-amide] | 100 to 1000 nM | 100 to 1000 nM | > 1000 nM | > 1000 nM | > 1000 nM | > 1000 nM | > 1000 nM | 100 to 1000 nM | > 1000 nM | > 1000 nM |

Now from value to molecule, other results behind:

| GI50 [1] | GI50 [2] | GI50 (RS4; 11 (FLT3 wild type)) | GI50 [3] | GI50 [4] | GI50 (U937 (FLT3 wild-type)) | GI50 (HL-60 (FLT3 wild type)) | GI50 [7] | SMILES | GI50 [5] | GI50 [6] |
| --- | --- | --- | --- | --- | --- | --- | --- | --- | --- | --- |
| 10 to 100 nM | 10 to 100 nM | > 1000 nM | > 1000 nM | > 1000 nM | > 1000 nM | > 1000 nM | > 1000 nM | CC(C)(C)c1cc(N)n(C(=O)Nc2ccc(-n3cnc4cc(C(F)(F)F)ccc43)cc2)n1 [Compound 126, 5-amino-3-tert-butyl-pyrazol-1-carboxylic acid [4-(5-trifluoromethyl-benzimidazol-1-yl)-phenyl]-amide] | > 1000 nM | > 1000 nM |
| 0.1 to 1 nM | 0.1 to 1 nM | > 1000 nM | > 1000 nM | > 1000 nM | > 1000 nM | > 1000 nM | > 1000 nM | CC1(COc2ccc3c(c2)ncn3-c2ccc(NC(=O)Nc3cc(C(C)(C)C)on3)cc2)COC1 [Compound 9, 1-(5-tert-butyl-isoxazol-3-yl)-3-{4-[5-(3-methyl-oxetan-3-ylmethoxy)-benzimidazol-1-yl]-phenyl]urea] | > 1000 nM | > 1000 nM |
| 10 to 100 nM | 10 to 100 nM | > 1000 nM | > 1000 nM | > 1000 nM | > 1000 nM | > 1000 nM | > 1000 nM | COc1ncnc2c1ncn2-c1ccc(NC(=O)Nc2cc(C(C)(C)C)on2)cc1 [Compound 58, 1-(5-tert-butyl-isoxazol-3-yl)-3-[4-(6-methoxylpurin-9-yl)-phenyl]-urea] | > 1000 nM | > 1000 nM |
| 1 to 10 nM | 1 to 10 nM | > 1000 nM | > 1000 nM | > 1000 nM | > 1000 nM | > 1000 nM | > 1000 nM | CN(C)CCN(C)c1ccc2ncn(-c3ccc(NC(=O)Nc4cc(C(C)(C)C)on4)cc3)c2c1 [Compound 28, 1-(5-tert-butyl-isoxazol-3-yl)-3-(4-{6-[(2-dimethylamino-ethyl)-methyl-amino]-benzimidazol-1-yl}-phenyl)-urea] | > 1000 nM | > 1000 nM |
| 0.1 to 1 nM | 0.1 to 1 nM | > 1000 nM | > 1000 nM | > 1000 nM | > 1000 nM | > 1000 nM | > 1000 nM | COc1ccc2c(c1)ncn2-c1ccc(NC(=O)Nc2cc(C(C)(C)C)on2)cc1 [Compound 5, 1-(5-tert-butyl-isoxazol-3-yl)-3-[4-(5-methoxyl-benzimidazol-1-yl)-phenyl]-urea] | > 1000 nM | > 1000 nM |
| 0.1 to 1 nM | 0.1 to 1 nM | 100 to 1000 nM | 100 to 1000 nM | > 1000 nM | > 1000 nM | > 1000 nM | > 1000 nM | COCCOc1ccc2ncn(-c3ccc(NC(=O)Nc4cc(C(C)(C)C)on4)cc3)c2c1 [Compound 26, 1-(5-tert-butyl-isoxazol-3-yl)-3-{4-[6-(2-methoxyl-ethoxyl)-benzimidazol-1-yl]-phenyl]urea] | > 1000 nM | > 1000 nM |
| 0.1 to 1 nM | 0.1 to 1 nM | > 1000 nM | > 1000 nM | > 1000 nM | > 1000 nM | > 1000 nM | > 1000 nM | CC(C)Oc1ccc2c(c1)ncn2-c1ccc(NC(=O)Nc2cc(C(C)(C)C)n[nH]2)cc1 [Compound 74, 1-(5-tert-butyl-2H-pyrazol-3-yl)-3-[4-(5-isopropoxy-benzimidazol-1-yl)-phenyl]-urea] | > 1000 nM | > 1000 nM |
| 10 to 100 nM | 10 to 100 nM | > 1000 nM | > 1000 nM | > 1000 nM | > 1000 nM | > 1000 nM | > 1000 nM | CC(C)(C)c1cc(NC(=O)Nc2cnc(-n3cnc4ccccc43)nc2)no1 [Compound 43, 1-(2-benzimidazol-1-yl-pyrimidin-5-yl)-3-(5-tert-butyl-isoxazol-3-yl)-urea] | > 1000 nM | > 1000 nM |

— patent publication US10647680B2, “Urea compound, preparation method therefor and medical use thereof” (Ancureall Pharmaceutical (Shanghai) Co., Ltd., priority 2016, dated 2020)
